Data set [1] is described as follows: Solubility of the compound. The format is physicochemical.
The nature of data set [2]: Lipophilicity, logP of the compound. The format is physicochemical. Conditions: octanol/water.

The structures appear in SMILES notation. Values after ≈ are worked out from the molar mass of the structure shown.

The source of these data is ChEMBL document CHEMBL5346897, “smProdrugs: A repository of small molecule prodrugs” (Eur J Med Chem, 2023).

On to `CCOC(=O)OC(C)OC(=O)[C@@H]1N2C(=O)[C@@H](NC(=O)[C@H](N)c3ccccc3)[C@H]2SC1(C)C` (some centres not stated) [BACAMPICILLIN], for which, in data set [1], the solubility came out at 0.123 mg/mL (≈ 264 µM). In data set [2], this compound returned a logP of 0.88.

Usually solubility stands for how much of the substance goes into solution per volume. Higher therefore signals much dissolved substance. The logP is the decadic logarithm of the partition coefficient of the neutral form, usually between octanol and water.
